Measurements taken from patent publication US8962691B2, “Retinoid replacements and opsin agonists and methods for the use thereof” (University of Washington, priority 2003, dated 2015).

How the values were obtained:
Rpe65−/− mice [1] = details: mouse, in vivo
Description: Mice were anesthetized by intraperitoneal injection with 15 μl/g body weight of 6 mg/ml ketamine and 0.44 mg/ml xylazine diluted with 10 mM phosphate buffer, pH 7.2, containing 100 mM NaCl. The pupils were dilated with 1% tropicamide. A contact lens electrode was placed on the eye with a drop of methylcellulose, and a ground electrode (a reference electrode) was placed in the ear. ERGs were recorded with the universal testing and electrophysiologic system 3000 (UTAS E-3000) (LKC Technologies, Inc.). The mice were placed in a Ganzfield chamber, and responses to flash stimuli were obtained from both eyes simultaneously. […] Two to four recordings were made with >10-second intervals. Typically, 4-8 animals were used for recording of each point in all conditions. All ERG measurements were done within 10-40 minutes after anesthesia.

rods from Rpe65−/− mice = experiment: Single cell recordings of isolated rods; assay type: in vivo, mouse
Description: Mice were dark-reared from birth and sacrificed via cervical dislocation, and the eyes were removed. The retina was isolated and stored on ice for up to 12 hours in HEPES-buffered Ames' solution (10 mM HEPES, pH adjusted to 7.4 with NaOH). Isolated rods were obtained by shredding a small piece of retina (roughly 1 mm^2) with fine needles in a 160-μl drop of solution. The drop was then injected into a recording chamber mounted on the stage of an inverted microscope (Nikon Eclipse) equipped with an infrared video viewing system and continuously superfused at 2-3 ml/minute with bicarbonate-buffered Ames' solution warmed to 37° C. (pH 7.4 when equilibrated with 5% CO2, 95% O2). The entire dissection was carried out under infrared illumination using a dissecting microscope equipped with infrared-visible image converters.
An isolated rod was drawn by suction into a heat-polished, silanized borosilicate electrode with an opening 1.2-1.5 μm in diameter. The electrode was filled with HEPES-buffered Ames' solution. The electrical connections to the bath and suction electrode were made by NaCl-filled agar bridges that contacted calomel half-cells. Bath voltage was held at ground by an active clamp circuit (Baylor et al. J. Physiol. 354:203-23 (1984)). Membrane current collected by the suction electrode was amplified by an Axopatch 200A patch clamp amplifier (Axon Instruments, Foster City, Calif.), filtered at 30 Hz (3 dB point) with an 8-pole Bessel low pass filter, and digitized at 1 kHz.
Light from light-emitting diodes with peak outputs at 470, 570, and 640 nm were combined using a trifurcated fiber optic and focused on the preparation using a water immersion lens in place of the microscope condensor. The light stimulus was spatially uniform and illuminated a circular area 0.57 mm in diameter centered on the recorded cell. Light intensities were measured at the preparation and converted to equivalent 500-nm photons (max for rod sensitivity) using the absorption spectrum of rhodopsin and the measured light-emitting diode spectrum.

[2] = Retinal in blood circulation after intravenous injection or gavage; assay type: in vivo, mouse; details: for t1/2 in the circulation: intravenous injection
Description: (§1) Oral gavage was carried out as described previously (Van Hooser et al., Proc. Natl. Acad. Sci. USA 97:8623-28 (2000)).
(§2) The chemicals were purchased from Sigma/Aldrich unless otherwise specified. Solution A contained 10 mg of 9-cis-retinal, 75 mg of Cremophor EL, 1 mg of α-tocopherol, and 0.6 mg of benzoic acid suspended in 1 ml of lactated Ringer's solution (Baxter). The mixture was vortexed for 10 minutes and centrifuged for 10 minutes at 20,000×g, and the concentration of 9-cis-retinal (7.7 mM) was determined spectrophotometrically. Solution B contained 13 mg of 9-cis-retinal, 50 mg of Cremophor EL, 10 mg of dipalmitoylphosphatidyl choline, and 40 mg of 2-hydroxypropyl-β-cyclodextrin suspended in 1 ml of lactated Ringer's solution (Baxter). The mixture was vortexed for 10 minutes and centrifuged for 10 minutes at 20,000×g, and the concentration of 9-cis-retinal (10 mM) was determined spectrophotometrically. Solutions A and B (typically, 100 μl) were delivered to the mouse lateral tail vein employing a 1-ml syringe equipped with a 27-gauge needle and a restraint tube.

Rpe65−/− mice [3] = experiment: Analyses of retinoids and visual pigments in eyes of Rpe65−/− mice given 9-cis-retinal; assay type: in vivo, mouse
Description: All of the procedures were performed under dim red light as described previously (Van Hooser et al., Proc. Natl. Acad. Sci. USA 97:8623-28 (2000); Jang et al., J. Biol. Chem. 276:32456-65 (2001); Palczewski et al., Biochemistry 38:12012-19 (1999)). In addition to previously described methods, retinoid analysis was performed on an HP 1100 series high pressure liquid chromatograph (HPLC) equipped with a diode array detector and HP Chemstation A.07.01 software, allowing identification of retinoid isomers according to their specific retention time and absorption maxima. A normal phase column (Beckman Ultrasphere Si 5μ, 4.6×250 mm) and an isocratic solvent system of 0.5% ethyl acetate in hexane (v/v) for 15 minutes followed by 4% ethyl acetate in hexane for 60 minutes at a flow rate of 1.4 ml/minute at 20° C. (total 75 min) with detection at 325 nm allowed the separation of 11-cis-, 13-cis-, and all-trans-retinyl esters. In addition, all of the study procedures related to the analysis of dissected mouse eyes, derivatization, and separation of retinoids have been described previously in detail (Van Hooser et al., Proc. Natl. Acad. Sci. USA 97:8623-28 (2000)). Rhodopsin and iso-rhodopsin measurements were performed as described previously (Palczewski et al., Biochemistry 38:12012-19 (1999)). Typically, two mouse eyes were used per assay, and the assays were repeated three to six times. The data are presented with S.E.M.
as §1, §2

SMILES: CC1=C(/C=C/C(C)=C\C=C\C(C)=C\C=O)C(C)(C)CCC1 [9-cis-retinal]
- ERG activity (a- and b-wave) compared with Me2SO (Rpe65−/− mice [1]): significantly increased sensitivity
- factor of increase of half-saturating flash intensity over Rpe65+/+ rods (rods from Rpe65−/− mice; 0.25 mg): 131
- further desensitization of rods (rods from Rpe65−/− mice; 0.25 mg): 6.8 fold
- light-sensitive dark current of rods (rods from Rpe65−/− mice; 0.25 mg): 3.6±0.9 pA
- factor of increase of half-saturating flash intensity over Rpe65+/+ rods (rods from Rpe65−/− mice; 1.25 mg): 66
- further desensitization of rods (rods from Rpe65−/− mice; 1.25 mg): 4.5 fold
- dim flash response kinetics vs Rpe65+/+ (rods from Rpe65−/− mice; 2.5 mg): essentially the same kinetics
- factor of increase of half-saturating flash intensity over Rpe65+/+ rods (rods from Rpe65−/− mice; 2.5 mg): 6
- increase in half-saturating flash strength compared with rods of Rpe65+/+ (rods from Rpe65−/− mice; 2.5 mg): 6 fold
- rod dark current (rods from Rpe65−/− mice; 2.5 mg): essentially the same as Rpe65+/+
- dim flash response time-to-peak and recovery times (rods from Rpe65−/− mice; 1.25 or 0.25 mg): substantially faster than those of Rpe65+/+
- half-saturating flash intensity I0 (rods from Rpe65−/− mice; Rpe65−/− mice treated with 0.25 mg of 9-cis-retinal): 3929 equivalent 500 nm photons/μm^2
- half-saturating flash intensity I0 (rods from Rpe65−/− mice; Rpe65−/− mice treated with 1.25 mg of 9-cis-retinal): 1995 equivalent 500 nm photons/μm^2
- half-saturating flash intensity I0 (rods from Rpe65−/− mice; Rpe65−/− mice treated with 2.5 mg of 9-cis-retinal): 164 equivalent 500 nm photons/μm^2
- presence of retinal in the bloodstream ([2]; gavage): greater than 48 hours
- t1/2 in the circulation ([2]; in the presence of cyclodextrins): 23 h
- t1/2 in the circulation ([2]; without cyclodextrins): 12 h
- axial density of iso-rhodopsin as share of rhodopsin in Rpe65+/+ rods (Rpe65−/− mice [3]; 0.25 mg): 16%
- free opsin as share of total available pigment (Rpe65−/− mice [3]; 0.25 mg): 72%
- axial density of iso-rhodopsin as share of rhodopsin in Rpe65+/+ rods (Rpe65−/− mice [3]; 1.25 mg): 21%
- free opsin as share of total available pigment (Rpe65−/− mice [3]; 1.25 mg): 63%
- amount of iso-rhodopsin (Rpe65−/− mice [3]; 2.5 mg): 300 pmol
- free opsin in rods (Rpe65−/− mice [3]; 2.5 mg): no free opsin
- iso-rhodopsin as share of rhodopsin in Rpe65+/+ rods (Rpe65−/− mice [3]; 2.5 mg): about 57%
- number of iso-rhodopsin molecules in rods (Rpe65−/− mice [3]; 2.5 mg): about 1.2×10^7
- iso-rhodopsin formed (Rpe65−/− mice [3]; 2.5 mg dose gavage): 300±25 pmol of iso-rhodopsin/eye
- iso-rhodopsin and 9-cis-retinyl esters after flashes (Rpe65−/− mice [3]; 2.5 mg, after 48 hour more than three intense flashes at 1-hour intervals): significantly depleted
- retinyl esters from liver and RPE after flashes (Rpe65−/− mice [3]; 2.5 mg, five flashes at 24-hour intervals): completely depleted
- all-trans-retinyl ester accumulation (Rpe65−/− mice [3]; 0.25-mg dose every other day from PND 7 until 30 days old): dramatic change in the ester accumulation
- iso-rhodopsin formed (Rpe65−/− mice [3]; 0.25-mg dose gavage): 85.6±6.2 pmol/eye
- iso-rhodopsin formed (Rpe65−/− mice [3]; 1.25-mg dose gavage): 109.8 pmol of iso-rhodopsin/eye
- decrease of iso-rhodopsin with age (Rpe65−/− mice [3]; 6-month-old (FIG. 2B) compared with FIG. 2A): 50%
- reduction of ester levels compared with untreated animals (Rpe65−/− mice [3]; 6 month-old Rpe65−/− mice treated twice, 2.5 mg/dose): > 50%
- iso-rhodopsin levels between dosing regimens (Rpe65−/− mice [3]; 6 month-old mice, 2.5 mg/dose twice at PND 30 and 34, 30 and 120, or 30 and 150): comparable
- pigment deficit of Rpe65−/− rods relative to Rpe65+/+ (Rpe65−/− mice [3]; 48 hours after treatment): approximately 40%
- time rod photopigment is produced and maintained (Rpe65−/− mice [3]; Rpe65−/− mice in the dark): more than 6 months
- overall amounts of all-trans-retinyl esters (Rpe65−/− mice [3]; continued administration of 1 dose (1.25 mg) per week after early treatment): dramatically suppressed
- accumulation of 9-cis-retinyl esters in the liver or RPE (Rpe65−/− mice [3]; intravenous injection, addition of cyclodextrin): higher accumulation
- iso-rhodopsin production (Rpe65−/− mice [3]; intravenous injection, with and without cyclodextrins): produced iso-rhodopsin
- depletion of retinal (iso-rhodopsin level) (Rpe65−/− mice [3]; single 2.5 mg dose at 1 month, 12-hour light/dark cycle or 24 hour dark for 37 days): No appreciable depletion of retinal
- removal of accumulated esters in the RPE (Rpe65−/− mice [3]; treatment began after more than 1 month of age): not removed
